Entries after “also recorded” stand apart in the source; their conditions may differ.
Experiments:
[1] = tested on: phosphorylated tau oligomer; assay: Evaluation of phosphorylated tau oligomers in brain of APP-Tg mice, Western blotting (Test 4); format: in vivo, mouse; details: for reducing effect of tau oligomer: with food for 7-10 days, ABT 1 mg/g-food depending on the compound, brain, anti-oligomerized tau antibody TOMA-1
human Nav1.1 = molecular target: T1, human Nav1.1 (Homo sapiens, UniProt P35498); assay: Amplification of Nav1.1-derived voltage-gated sodium current (Nav1.1 current), automated patch clamp (Test 1); format: cell-based; details: HEK293, Concentration for evaluation 1 μM; HEK293 cell line stably expressing human Nav1.1; read-out: Nav1.1 current amplification rate (%)
T1 construct: host or cells: HEK293
Method in brief: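 HEK293 cells stably expressing human Nav1.1, restricted to cells with >500 pA current, were recorded by automated voltage-clamp patch clamp with a ramp voltage stimulus. Compounds were applied in HEPES-buffered extracellular solution with 1% DMSO. Amplification (%) = 100×(peak or AUC after/before compound)−100.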

| Compound | Reducing effect of phosphorylated tau oligomer ([1]; dose 1.9 mg/g-food, 7-10 days, without ABT) | Reducing effect of phosphorylated tau oligomer ([1]; dose 5.8 mg/g-food, 7-10 days, without ABT) | reducing effect of tau oligomer [1] | activation at 1 µM (human Nav1.1) | inhibition in vivo at 2.2 mg/g-food ([1]; Mus musculus, po, dose 2.2 mg/g-food, 7-10 days, without ABT, read-out: Reducing effect of phosphorylated tau oligomer) | inhibition in vivo at 6.6 mg/g-food ([1]; Mus musculus, po, dose 6.6 mg/g-food, 7-10 days, without ABT, read-out: Reducing effect of phosphorylated tau oligomer) | Reducing effect of phosphorylated tau oligomer ([1]; dose 0.2 mg/g-food, 7-10 days, with ABT 1 mg/g-food) | Reducing effect of phosphorylated tau oligomer ([1]; dose 2 mg/g-food, 7-10 days, with ABT 1 mg/g-food) |
| --- | --- | --- | --- | --- | --- | --- | --- | --- |
| CC1CCN(c2ccc(=O)n(CC(=O)Nc3ccc(C#N)cc3)n2)CC1 [Example 1, N-(4-Cyanophenyl)-2-[3-(4-methylpiperidin-1-yl)-6-oxopyridazin-1(6H)-yl]acetamide] | + + + | + + + + | some reducing effect of tau oligomer; also recorded: strong reducing effect of tau oligomer |  |  |  |  |  |
| CC1CC=C(c2cnc3cnn(CC(=O)Nc4ccn5ncnc5c4)c3n2)CC1 (centres unmarked) [Example 577, 2-[6-(4-methylcyclohex-1-en-1-yl)-1H-pyrazolo[3,4-b]pyrazin-1-yl]-N-([1,2,4]triazolo[1,5-a]pyridin-7-yl)acetamide] |  |  | some reducing effect of tau oligomer; also recorded: strong reducing effect of tau oligomer | 249% | 0 to 25% | 50 to 75% |  |  |
| CN(c1ncc2cnn(CC(=O)Nc3ccn4ncnc4c3)c2n1)C1CCCC1 [Example 795, 2-{6-[cyclopentyl(methyl)amino]-1H-pyrazolo[3,4-d]pyrimidin-1-yl}-N-([1,2,4]triazolo[1,5-a]pyridin-7-yl)acetamide] |  |  | some reducing effect of tau oligomer; also recorded: strong reducing effect of tau oligomer | 111% |  |  | + (0-25%: +) | +++ (50-75%: +++) |
